# Assay results as given in patent publication US20170190671A1, “BIS(ARYL)CATECHOL DERIVATIVES AS HERBICIDES” (E I DU PONT DE NEMOURS AND COMPANY, priority 2014, published 2017).
# What was measured:
# Assay in all cases: Test C postemergence
# Type in all cases: in vivo
# [1] = tested on: galium (catchweed bedstraw, Galium aparine); conditions: Galium, post-emergence, 336 h, Postemergence, scale 0 to 100, read-out: Plant response rating, Galium
# Source text: (§1) Seeds of plant species selected from blackgrass (Alopecurus myosuroides), Italian ryegrass (Lolium multiflorum), winter wheat (Triticum aestivum), galium (catchweed bedstraw, Galium aparine), corn (Zea mays), large (Lg) crabgrass (Digitaria sanguinalis), giant foxtail (Setaria faberii), johnsongrass (Sorghum halepense), lambsquarters (Chenopodium album), morningglory (Ipomoea coccinea), yellow nutsedge (Cyperus esculentus), pigweed (Amaranthus retroflexus), ragweed (common ragweed, Ambrosia elatior), soybean (Glycine max), barnyardgrass (Echinochloa crus-galli), oilseed rape (Brassica napus), waterhemp (common waterhemp, Amaranthus rudis), and velvetleaf (Abutilon theophrasti) were planted into a blend of loam soil and sand and treated preemergence with test chemicals formulated in a non-phytotoxic solvent mixture which included a surfactant.
# (§2) At the same time, plants selected from these crop and weed species and also chickweed (common chickweed, Stellaria media), kochia (Kochia scoparia), and wild oat (Avena fatua), were planted in pots containing Redi-Earth® planting medium (Scotts Company, 14111 Scottslawn Road, Marysville, Ohio 43041) comprising spaghnum peat moss, vermiculite, wetting agent and starter nutrients and treated with postemergence applications of test chemicals formulated in the same manner. Plants ranged in height from 2 to 18 cm (1- to 4-leaf stage) for postemergence treatments. Treated plants and controls were maintained in a greenhouse for 13 to 15 days, after which time all species were compared to controls and visually evaluated. Plant response ratings, summarized in Table C, are based on a scale of 0 to 100 where 0 is no effect and 100 is complete control. A dash (-) response means no test result.
# soybean (Glycine max) = conditions: Glycine max, post-emergence, Postemergence, scale 0 to 100, read-out: Plant response rating, Soybean
# Source text: as §1, §2
# [2] = tested on: waterhemp (common waterhemp, Amaranthus rudis); conditions: Amaranthus tuberculatus, post-emergence, Postemergence, scale 0 to 100, read-out: Plant response rating, Waterhemp
# Source text: as §1, §2
# corn (Zea mays) = conditions: Zea mays, post-emergence, 336 h, Postemergence, scale 0 to 100
# Source text: as §1, §2
# [3] = tested on: ragweed (common ragweed, Ambrosia elatior); conditions: Ambrosia artemisiifolia, post-emergence, 336 h, Postemergence, scale 0 to 100, read-out: Plant response rating, Ragweed
# Source text: as §1, §2
# [4] = tested on: lambsquarters (Chenopodium album); conditions: Chenopodium album, post-emergence, 336 h, Postemergence, scale 0 to 100, read-out: Plant response rating, Lambsquarters
# Source text: as §1, §2
compound,measurement,setting,value
"N#Cc1cccc(Oc2ncc(Cl)cn2)c1Oc1ccc(Cl)cn1 [Compound 16, 2-[(5-chloro-2-pyridinyl)oxy]-3-[(5-chloro-2-pyrimidinyl)oxy]benzonitrile]",pest or weed control at 16 g/ha,[1]; 16 g ai/ha,60%
same,pest or weed control at 31 g/ha,[1]; 31 g ai/ha,70%
same,pest or weed control at 62 g/ha,[1]; 62 g ai/ha,70%
same,pest or weed control at 125 g/ha,[1]; 125 g ai/ha,95%
same,plant injury at 31 g/ha,soybean (Glycine max); 31 g ai/ha,70%
same,plant injury at 62 g/ha,soybean (Glycine max); 62 g ai/ha,45%
same,plant injury at 125 g/ha,soybean (Glycine max); 125 g ai/ha,55%
same,pest or weed control at 31 g/ha,[2]; 31 g ai/ha,90%
same,pest or weed control at 62 g/ha,[2]; 62 g ai/ha,95%
same,pest or weed control at 125 g/ha,[2]; 125 g ai/ha,90%
same,"Corn plant response rating (crop injury, 0 = no effect, 100 = complete kill) at 16 g/ha",corn (Zea mays); 16 g ai/ha,10%
same,"Corn plant response rating (crop injury, 0 = no effect, 100 = complete kill) at 31 g/ha",corn (Zea mays); 31 g ai/ha,20%
same,"Corn plant response rating (crop injury, 0 = no effect, 100 = complete kill) at 62 g/ha",corn (Zea mays); 62 g ai/ha,10%
same,"Corn plant response rating (crop injury, 0 = no effect, 100 = complete kill) at 125 g/ha",corn (Zea mays); 125 g ai/ha,15%
same,pest or weed control at 31 g/ha,[3]; 31 g ai/ha,60%
same,pest or weed control at 62 g/ha,[3]; 62 g ai/ha,50%
same,pest or weed control at 125 g/ha,[3]; 125 g ai/ha,70%
same,pest or weed control at 16 g/ha,[4]; 16 g ai/ha,65%
same,pest or weed control at 31 g/ha,[4]; 31 g ai/ha,80%
same,pest or weed control at 62 g/ha,[4]; 62 g ai/ha,75%
same,pest or weed control at 125 g/ha,[4]; 125 g ai/ha,90%
